Measured values from patent US20210332073A1, “PROCESS FOR THE PREPARATION OF FERRIC CITRATE” (priority 2020, published 2021).
Where a name gives a salt, the structure may show the parent alone.

Experiment: Specific surface area of isolated ferric citrate
Assay type: physicochemical
Settings: vacuum dried at 30-40° C.

## O=C1CC2(O)CC(=O)[O][Fe]([O]1)[O]C2=O [Example-3, ferric citrate]
Method B: two lots combined, sieve BSS 200/75 micron
  specific surface area: above 16 sq. m/g

## O=C1CC2(O)CC(=O)[O][Fe]([O]1)[O]C2=O [Ferric citrate, iron (+3), x (1,2,3-propanetricarboxylic acid, 2-hydroxy-), y (H2O)]
Method A step c: acetone dumped in one lot, 20 mesh sieve
  specific surface area: above 20 m^2/g
